Experimental data as given in PubChem BioAssay (NCI).
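96-well plates; 48 h exposure; 5 concentrations. Endpoints by linear interpolation between flanking doses. Not reached: highest tested concentration assigned. The concentration for full growth arrest is given as TGI.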

Experiments:
Assay in all cases: growth of human tumour cells (NCI), 48 h
HCT-15 colon = test system: HCT-15 colon
U251 CNS = test system: U251 CNS
NCI-H522 lung = test system: NCI-H522 lung
LOX IMVI melanoma = test system: LOX IMVI melanoma
UACC-62 melanoma = test system: UACC-62 melanoma
IGROV1 ovarian = test system: IGROV1 ovarian
HT29 colon = test system: HT29 colon
COLO 205 colon = test system: COLO 205 colon
UACC-257 melanoma = test system: UACC-257 melanoma
HL-60(TB) leukemia = test system: HL-60(TB) leukemia
NCI-H23 lung = test system: NCI-H23 lung
SK-MEL-5 melanoma = test system: SK-MEL-5 melanoma
RPMI-8226 leukemia = test system: RPMI-8226 leukemia
MDA-N = test system: MDA-N
ACHN renal = test system: ACHN renal
SNB-19 CNS = test system: SNB-19 CNS
A498 renal = test system: A498 renal
OVCAR-8 ovarian = test system: OVCAR-8 ovarian
SF-268 CNS = test system: SF-268 CNS
TK-10 renal = test system: TK-10 renal
RXF 393 renal = test system: RXF 393 renal
SK-OV-3 ovarian = test system: SK-OV-3 ovarian
MCF7 breast = test system: MCF7 breast
SK-MEL-2 melanoma = test system: SK-MEL-2 melanoma
HS 578T breast = test system: HS 578T breast
786-0 renal = test system: 786-0 renal
SNB-75 CNS = test system: SNB-75 CNS
OVCAR-3 ovarian = test system: OVCAR-3 ovarian
NCI/ADR-RES ovarian = test system: NCI/ADR-RES ovarian
SW-620 colon = test system: SW-620 colon
OVCAR-4 ovarian = test system: OVCAR-4 ovarian
PC-3 prostate = test system: PC-3 prostate
A549 NSCLC = test system: A549 NSCLC
SR leukemia = test system: SR leukemia
K-562 leukemia = test system: K-562 leukemia
SF-539 CNS = test system: SF-539 CNS
KM12 colon = test system: KM12 colon
NCI-H460 lung = test system: NCI-H460 lung
SK-MEL-28 melanoma = test system: SK-MEL-28 melanoma
SF-295 CNS = test system: SF-295 CNS
SN12C renal = test system: SN12C renal
CAKI-1 renal = test system: CAKI-1 renal
HOP-92 NSCLC = test system: HOP-92 NSCLC
M14 melanoma = test system: M14 melanoma
EKVX NSCLC = test system: EKVX NSCLC
OVCAR-5 ovarian = test system: OVCAR-5 ovarian
MDA-MB-231 breast = test system: MDA-MB-231 breast
CCRF-CEM leukemia = test system: CCRF-CEM leukemia
NCI-H226 lung = test system: NCI-H226 lung
MDA-MB-435 = test system: MDA-MB-435
DU-145 prostate = test system: DU-145 prostate
T-47D breast = test system: T-47D breast
HCT-116 colon = test system: HCT-116 colon
MOLT-4 leukemia = test system: MOLT-4 leukemia
HCC-2998 colon = test system: HCC-2998 colon
HOP-62 NSCLC = test system: HOP-62 NSCLC
UO-31 renal = test system: UO-31 renal
MALME-3M melanoma = test system: MALME-3M melanoma

For Cc1cc(C)n(C(=O)CSc2nc3ccc(I)cc3c(=O)n2Cc2ccccc2)n1, the TGI (HCT-15 colon) was > 100 µM, the TGI (U251 CNS) was > 100 µM and the TGI (NCI-H522 lung) was 62.1 µM. For the same compound, the TGI (LOX IMVI melanoma) was > 100 µM, the TGI (UACC-62 melanoma) was > 100 µM and the TGI (IGROV1 ovarian) was 78.8 µM. The TGI (HT29 colon) was > 100 µM, the TGI (COLO 205 colon) was > 100 µM and the TGI (UACC-257 melanoma) was > 100 µM. For the same compound, the TGI (HL-60(TB) leukemia) was > 100 µM, the TGI (NCI-H23 lung) was > 100 µM and the TGI (SK-MEL-5 melanoma) was > 100 µM. The TGI (RPMI-8226 leukemia) was > 100 µM, the TGI (MDA-N) was > 100 µM and the TGI (ACHN renal) was > 100 µM. For the same compound, the TGI (SNB-19 CNS) was > 100 µM, the TGI (A498 renal) was 63.4 µM and the TGI (OVCAR-8 ovarian) was 70.3 µM. The TGI (SF-268 CNS) was 71 µM, the TGI (TK-10 renal) was > 100 µM and the TGI (RXF 393 renal) was 62.4 µM. For the same compound, the TGI (SK-OV-3 ovarian) was > 100 µM, the TGI (MCF7 breast) was > 100 µM and the TGI (SK-MEL-2 melanoma) was > 100 µM. The TGI (HS 578T breast) was 44.6 µM, the TGI (786-0 renal) was > 100 µM and the TGI (SNB-75 CNS) was 63.4 µM. The TGI (OVCAR-3 ovarian) was > 100 µM, the TGI (NCI/ADR-RES ovarian) was > 100 µM and the TGI (SW-620 colon) was > 100 µM. For the same compound, the TGI (OVCAR-4 ovarian) was > 100 µM, the TGI (PC-3 prostate) was 63.7 µM and the TGI (A549 NSCLC) was > 100 µM. The TGI (SR leukemia) was > 100 µM, the TGI (K-562 leukemia) was > 100 µM and the TGI (SF-539 CNS) was > 100 µM. The TGI (KM12 colon) was > 100 µM, the TGI (NCI-H460 lung) was > 100 µM and the TGI (SK-MEL-28 melanoma) was > 100 µM. For the same compound, the TGI (SF-295 CNS) was > 100 µM, the TGI (SN12C renal) was > 100 µM and the TGI (CAKI-1 renal) was 22.2 µM. For the same compound, the TGI (HOP-92 NSCLC) was 53 µM, the TGI (M14 melanoma) was > 100 µM and the TGI (EKVX NSCLC) was > 100 µM. For the same compound, the TGI (OVCAR-5 ovarian) was > 100 µM, the TGI (MDA-MB-231 breast) was 66.3 µM and the TGI (CCRF-CEM leukemia) was > 100 µM. The TGI (NCI-H226 lung) was > 100 µM, the TGI (MDA-MB-435) was > 100 µM and the TGI (DU-145 prostate) was > 100 µM. The TGI (T-47D breast) was > 100 µM, the TGI (HCT-116 colon) was > 100 µM and the TGI (MOLT-4 leukemia) was > 100 µM. For the same compound, the TGI (HCC-2998 colon) was > 100 µM and the TGI (HOP-62 NSCLC) was 70.3 µM.
With CC1(C)NC(C)(C)/C(=N\O)C(=NO)/C1=N/O the TGI (HCT-15 colon) was > 100 µM, the TGI (U251 CNS) was > 100 µM and the TGI (LOX IMVI melanoma) was > 100 µM. The TGI (UACC-62 melanoma) was > 100 µM, the TGI (IGROV1 ovarian) was > 100 µM and the TGI (HT29 colon) was > 100 µM. For the same compound, the TGI (COLO 205 colon) was > 100 µM, the TGI (UACC-257 melanoma) was > 100 µM and the TGI (HL-60(TB) leukemia) was > 100 µM. The TGI (NCI-H23 lung) was > 100 µM, the TGI (SK-MEL-5 melanoma) was > 100 µM and the TGI (RPMI-8226 leukemia) was > 100 µM. For the same compound, the TGI (MDA-N) was > 100 µM, the TGI (ACHN renal) was > 100 µM and the TGI (UO-31 renal) was > 100 µM. The TGI (SNB-19 CNS) was > 100 µM, the TGI (OVCAR-8 ovarian) was > 100 µM and the TGI (SF-268 CNS) was > 100 µM. For the same compound, the TGI (TK-10 renal) was > 100 µM, the TGI (RXF 393 renal) was > 100 µM and the TGI (SK-OV-3 ovarian) was > 100 µM. The TGI (MCF7 breast) was > 100 µM, the TGI (SK-MEL-2 melanoma) was > 100 µM and the TGI (HS 578T breast) was > 100 µM. The TGI (786-0 renal) was > 100 µM, the TGI (SNB-75 CNS) was > 100 µM and the TGI (OVCAR-3 ovarian) was > 100 µM. The TGI (NCI/ADR-RES ovarian) was > 100 µM, the TGI (SW-620 colon) was > 100 µM and the TGI (OVCAR-4 ovarian) was > 100 µM. For the same compound, the TGI (PC-3 prostate) was > 100 µM, the TGI (A549 NSCLC) was > 100 µM and the TGI (SR leukemia) was > 100 µM. The TGI (K-562 leukemia) was > 100 µM, the TGI (SF-539 CNS) was > 100 µM and the TGI (KM12 colon) was > 100 µM. The TGI (NCI-H460 lung) was > 100 µM, the TGI (SK-MEL-28 melanoma) was > 100 µM and the TGI (SF-295 CNS) was > 100 µM. The TGI (SN12C renal) was > 100 µM, the TGI (CAKI-1 renal) was > 100 µM and the TGI (HOP-92 NSCLC) was > 100 µM. The TGI (M14 melanoma) was > 100 µM, the TGI (EKVX NSCLC) was > 100 µM and the TGI (OVCAR-5 ovarian) was > 100 µM. The TGI (MALME-3M melanoma) was > 100 µM, the TGI (MDA-MB-231 breast) was > 100 µM and the TGI (CCRF-CEM leukemia) was > 100 µM. The TGI (NCI-H226 lung) was > 100 µM, the TGI (MDA-MB-435) was > 100 µM and the TGI (DU-145 prostate) was > 100 µM. The TGI (T-47D breast) was > 100 µM, the TGI (HCT-116 colon) was > 100 µM and the TGI (MOLT-4 leukemia) was > 100 µM. The TGI (HCC-2998 colon) was > 100 µM and the TGI (HOP-62 NSCLC) was > 100 µM.
c1ccc2c(c1)CCN2CCN1CCc2ccccc21 was tested, and the TGI (HCT-15 colon) was > 10 µM, the TGI (U251 CNS) was > 10 µM and the TGI (NCI-H522 lung) was > 10 µM. For the same compound, the TGI (LOX IMVI melanoma) was > 10 µM, the TGI (UACC-62 melanoma) was > 10 µM and the TGI (IGROV1 ovarian) was > 10 µM. For the same compound, the TGI (HT29 colon) was > 10 µM, the TGI (COLO 205 colon) was > 10 µM and the TGI (UACC-257 melanoma) was > 10 µM. The TGI (HL-60(TB) leukemia) was > 10 µM, the TGI (NCI-H23 lung) was > 10 µM and the TGI (SK-MEL-5 melanoma) was > 10 µM. The TGI (RPMI-8226 leukemia) was > 10 µM, the TGI (MDA-N) was > 10 µM and the TGI (ACHN renal) was > 10 µM. The TGI (UO-31 renal) was > 10 µM, the TGI (SNB-19 CNS) was > 10 µM and the TGI (OVCAR-8 ovarian) was > 10 µM. The TGI (SF-268 CNS) was > 10 µM, the TGI (TK-10 renal) was > 10 µM and the TGI (RXF 393 renal) was > 10 µM. For the same compound, the TGI (SK-OV-3 ovarian) was > 10 µM, the TGI (MCF7 breast) was > 10 µM and the TGI (SK-MEL-2 melanoma) was > 10 µM. The TGI (HS 578T breast) was > 10 µM, the TGI (786-0 renal) was > 10 µM and the TGI (SNB-75 CNS) was > 10 µM. For the same compound, the TGI (OVCAR-3 ovarian) was > 10 µM, the TGI (NCI/ADR-RES ovarian) was > 10 µM and the TGI (SW-620 colon) was > 10 µM. For the same compound, the TGI (OVCAR-4 ovarian) was > 10 µM, the TGI (PC-3 prostate) was > 10 µM and the TGI (A549 NSCLC) was > 10 µM. The TGI (SR leukemia) was > 10 µM, the TGI (K-562 leukemia) was > 10 µM and the TGI (SF-539 CNS) was > 10 µM. The TGI (KM12 colon) was > 10 µM, the TGI (NCI-H460 lung) was > 10 µM and the TGI (SK-MEL-28 melanoma) was > 10 µM. For the same compound, the TGI (SF-295 CNS) was > 10 µM, the TGI (SN12C renal) was > 10 µM and the TGI (CAKI-1 renal) was > 10 µM. The TGI (HOP-92 NSCLC) was > 10 µM, the TGI (M14 melanoma) was > 10 µM and the TGI (EKVX NSCLC) was > 10 µM. For the same compound, the TGI (OVCAR-5 ovarian) was > 10 µM, the TGI (MDA-MB-231 breast) was > 10 µM and the TGI (CCRF-CEM leukemia) was > 10 µM. For the same compound, the TGI (NCI-H226 lung) was > 10 µM, the TGI (MDA-MB-435) was > 10 µM and the TGI (DU-145 prostate) was > 10 µM. The TGI (T-47D breast) was > 10 µM, the TGI (HCT-116 colon) was > 10 µM and the TGI (MOLT-4 leukemia) was > 10 µM. The TGI (HCC-2998 colon) was > 10 µM and the TGI (HOP-62 NSCLC) was > 10 µM.
